# Reference: PMC10713593, “Staphylococcus aureus functional amyloids catalyze degradation of β-lactam antibiotics” (Nature Communications, 2023)
# Target: PSMα3 fibrils (Staphylococcus aureus, UniProt A9JX07)
# Assay: LC-MS degradation of amoxicillin and penicillin G with PSMα3 fibrils or buffer
# Assay type: biochemical
# Set-up: key to Amoxicillin (remaining) / Degraded Amoxicillin (PSMa3) / Degraded Amoxicillin: % relative abundance from extracted ion chromatogram peak areas
# Conditions: for Degraded Penicillin G (PSMa3) (percentage of LC peaks, hydrolyzed product) / Penicillin G (PSMa3) (percentage of LC peaks, parent compound) / hydrolysis by PSMα3 fibrils versus spontaneous degradation: PSMα3 fibrils 308 µM; for Degraded Penicillin G (PSMa3) (percentage of LC peaks, hydrolyzed product) / Penicillin G (PSMa3) (percentage of LC peaks, parent compound) / Degraded Penicillin G (percentage of LC peaks, hydrolyzed product) / Penicillin G (percentage of LC peaks, parent compound): Hepes 50 mM pH 7.4, penicillin G 40 µM; for Degraded Penicillin G (PSMa3) (percentage of LC peaks, hydrolyzed product) / Penicillin G (PSMa3) (percentage of LC peaks, parent compound) / Degraded Penicillin G (percentage of LC peaks, hydrolyzed product) / Penicillin G (percentage of LC peaks, parent compound) / Amoxicillin (remaining) / Degraded Amoxicillin / Amoxicillin (PSMa3) (remaining) / Degraded Amoxicillin (PSMa3): LC-MS; for hydrolysis by PSMα3 fibrils versus spontaneous degradation: antibiotic 40 µM, Hepes 50 mM pH 7.4, LC-MS (Fig. 6); for Degraded Penicillin G (percentage of LC peaks, hydrolyzed product) / Penicillin G (percentage of LC peaks, parent compound): buffer control; for Amoxicillin (remaining) / Degraded Amoxicillin: buffer only (blank); for Amoxicillin (remaining) / Amoxicillin (PSMa3) (remaining): 366 peak as share of 366+384 sum; for Degraded Amoxicillin / Degraded Amoxicillin (PSMa3): 384 peak as share of 366+384 sum
# Method: Amoxicillin or Penicillin solutions were dissolved in Hepes buffer (50 mM, pH 7.4) in concentration of 50 µM. PSMα3 solution in concentration of 1.54 mM was dissolved in DIW and Hepes buffer was added to the final concentration of 50 mM. The antibiotics’ solutions and preincubated PSMα3 solutions were mixed to final PSMα3 […] 180 µL organic solvent to stop the reaction (acetonitrile for Amoxicillin, methanol in the case of Penicillin). The samples were collected and injected sequentially into the LC-MS analysis.
# Waters ACQUITY UPLC I-Class PLUS System coupled with high-resolution Thermo Orbitrap Exploris 240 mass-spectrometer were used for analysis of Amoxicillin and Penicillin-G over time. 1 µL of each sample was injected into the reverse-phase Acquity UPLC BEH C18 1.7 µm, 2.1 × 50 mm column (Waters) and run under a gradient program (Table S2 for Amoxicillin, Table S3 for Penicillin-G). The samples were ionized using soft electrospray ionization in positive mode and detected in a full scan mode in range from 60 to 900 m/z with a resolution of 240,000 Full Width at Half Maximum. MS was tuned according to the manufacture recommendations. Relative abundance of the intact/degraded compounds was calculated by peak area of the extracted ion chromatogram: for Amoxicillin 366.1–366.12, and degraded-Amoxicillin 384.1–384.13 m/z, Penicillin-G 335.1–335.12, for degraded-Penicillin-G 353.1–353.12, for (Figs. S13 and S14, respectively).
# Sequence of PSMα3 fibrils (A9JX07 whole entry, looked up): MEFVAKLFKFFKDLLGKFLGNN
structure (smiles),measurement,setting,value
CC1(C)S[C@@H]2[C@H](NC(=O)Cc3ccccc3)C(=O)N2[C@H]1C(=O)O [Penicillin G],"Degraded Penicillin G (PSMa3) (percentage of LC peaks, hydrolyzed product)",0h,14.1576%
same,"Penicillin G (PSMa3) (percentage of LC peaks, parent compound)",0h,85.8424%
same,"Degraded Penicillin G (PSMa3) (percentage of LC peaks, hydrolyzed product)",2h,11.4487%
same,"Penicillin G (PSMa3) (percentage of LC peaks, parent compound)",2h,88.5513%
same,"Degraded Penicillin G (PSMa3) (percentage of LC peaks, hydrolyzed product)",4h,13.5281%
same,"Penicillin G (PSMa3) (percentage of LC peaks, parent compound)",4h,86.4719%
same,"Degraded Penicillin G (PSMa3) (percentage of LC peaks, hydrolyzed product)",8h,13.7177%
same,"Penicillin G (PSMa3) (percentage of LC peaks, parent compound)",8h,86.2823%
same,"Degraded Penicillin G (PSMa3) (percentage of LC peaks, hydrolyzed product)",12h,18.21%
same,"Penicillin G (PSMa3) (percentage of LC peaks, parent compound)",12h,81.79%
same,"Degraded Penicillin G (PSMa3) (percentage of LC peaks, hydrolyzed product)",24h,37.9475%
same,"Penicillin G (PSMa3) (percentage of LC peaks, parent compound)",24h,62.0525%
same,"Degraded Penicillin G (PSMa3) (percentage of LC peaks, hydrolyzed product)",48h,86.3947%
same,"Penicillin G (PSMa3) (percentage of LC peaks, parent compound)",48h,13.6053%
same,"Degraded Penicillin G (PSMa3) (percentage of LC peaks, hydrolyzed product)",60h,96.085%
same,"Penicillin G (PSMa3) (percentage of LC peaks, parent compound)",60h,3.915%
same,"Degraded Penicillin G (PSMa3) (percentage of LC peaks, hydrolyzed product)",72h,99.5055%
same,"Penicillin G (PSMa3) (percentage of LC peaks, parent compound)",72h,0.4945%
same,hydrolysis by PSMα3 fibrils versus spontaneous degradation,,significantly higher extent compared to the spontaneous degradation
same,"Degraded Penicillin G (percentage of LC peaks, hydrolyzed product)",0h,11.7847%
same,"Penicillin G (percentage of LC peaks, parent compound)",0h,88.2153%
same,"Degraded Penicillin G (percentage of LC peaks, hydrolyzed product)",2h,11.7612%
same,"Penicillin G (percentage of LC peaks, parent compound)",2h,88.2388%
same,"Degraded Penicillin G (percentage of LC peaks, hydrolyzed product)",4h,11.6984%
same,"Penicillin G (percentage of LC peaks, parent compound)",4h,88.3016%
same,"Degraded Penicillin G (percentage of LC peaks, hydrolyzed product)",8h,11.6907%
same,"Penicillin G (percentage of LC peaks, parent compound)",8h,88.3093%
same,"Degraded Penicillin G (percentage of LC peaks, hydrolyzed product)",12h,15.4738%
same,"Penicillin G (percentage of LC peaks, parent compound)",12h,84.5262%
same,"Degraded Penicillin G (percentage of LC peaks, hydrolyzed product)",24h,23.4015%
same,"Penicillin G (percentage of LC peaks, parent compound)",24h,76.5985%
same,"Degraded Penicillin G (percentage of LC peaks, hydrolyzed product)",48h,37.4339%
same,"Penicillin G (percentage of LC peaks, parent compound)",48h,62.5661%
same,"Degraded Penicillin G (percentage of LC peaks, hydrolyzed product)",60h,42.5642%
same,"Penicillin G (percentage of LC peaks, parent compound)",60h,57.4358%
same,"Degraded Penicillin G (percentage of LC peaks, hydrolyzed product)",72h,42.8604%
same,"Penicillin G (percentage of LC peaks, parent compound)",72h,57.1396%
CC1(C)S[C@@H]2[C@H](NC(=O)[C@H](N)c3ccc(O)cc3)C(=O)N2[C@H]1C(=O)O [amoxycillin],hydrolysis by PSMα3 fibrils versus spontaneous degradation,,significantly higher extent compared to the spontaneous degradation
same,Amoxicillin (remaining),0h,81.4445
same,Degraded Amoxicillin,0h,18.5555
same,Amoxicillin (remaining),4h,80.1864
same,Degraded Amoxicillin,4h,19.8136
same,Amoxicillin (remaining),8h,79.6866
same,Degraded Amoxicillin,8h,20.3134
same,Amoxicillin (remaining),12h,78.9455
same,Degraded Amoxicillin,12h,21.0545
same,Amoxicillin (remaining),24h,78.1892
same,Degraded Amoxicillin,24h,21.8108
same,Amoxicillin (remaining),60h,69.9317
same,Degraded Amoxicillin,60h,30.0683
same,Amoxicillin (remaining),72h,68.3628
same,Degraded Amoxicillin,72h,31.6372
same,Amoxicillin (remaining),80h,59.5525
same,Degraded Amoxicillin,80h,40.4475
same,Amoxicillin (PSMa3) (remaining),"with PSMa3, 0h",79.7112
same,Degraded Amoxicillin (PSMa3),"with PSMa3, 0h",20.2888
same,Amoxicillin (PSMa3) (remaining),"with PSMa3, 4h",78.2636
same,Degraded Amoxicillin (PSMa3),"with PSMa3, 4h",21.7364
same,Amoxicillin (PSMa3) (remaining),"with PSMa3, 8h",74.8273
same,Degraded Amoxicillin (PSMa3),"with PSMa3, 8h",25.1727
same,Amoxicillin (PSMa3) (remaining),"with PSMa3, 12h",70.3173
same,Degraded Amoxicillin (PSMa3),"with PSMa3, 12h",29.6827
same,Amoxicillin (PSMa3) (remaining),"with PSMa3, 24h",62.2462
same,Degraded Amoxicillin (PSMa3),"with PSMa3, 24h",37.7538
same,Amoxicillin (PSMa3) (remaining),"with PSMa3, 60h",12.8041
same,Degraded Amoxicillin (PSMa3),"with PSMa3, 60h",87.1959
same,Amoxicillin (PSMa3) (remaining),"with PSMa3, 72h",5.039
same,Degraded Amoxicillin (PSMa3),"with PSMa3, 72h",94.9606
same,Amoxicillin (PSMa3) (remaining),"with PSMa3, 80h",3.011
same,Degraded Amoxicillin (PSMa3),"with PSMa3, 80h",96.9892
